In patent US10604554B2, “Double-acylated GLP-1 derivatives” (Novo Nordisk A/S, priority 2012, dated 2020):
Numbered stars: 1 amine (or outer) side, 2 acyl side, 3 side chain; on linkers, the order of the positions; unused ones are H or OH. Square brackets hold non-standard residues; d marks the D form. Side chains are listed from the residue outwards. Peptide text beside a SMILES is read from it. * marks the point of attachment. Undecanoyl(11-OPh(4-COOH)) = O=C(O)c1ccc(OCCCCCCCCCCC(=O)*)cc1; γGlu = O=C(O)[C@H](CCC(=O)[*:2])N[*:1]; εLys = N[C@@H](CCCCN[*:1])C(=O)[*:2]; Aib = CC(C)(N)C(=O)O

Columns and labels:
human GLP-1 receptor [1] = biological target: T1, human GLP-1 receptor (Homo sapiens, UniProt P43220); test: GLP-1 receptor binding (SPA, displacement of 125I-GLP-1)
T1 construct: expressed in transfected cells; host or cells: BHK cells, clone FCW467-12A/KZ10-1 (parent line BHKTS13), further transfected with CRE luciferase
T1 sequence (P43220 24-463): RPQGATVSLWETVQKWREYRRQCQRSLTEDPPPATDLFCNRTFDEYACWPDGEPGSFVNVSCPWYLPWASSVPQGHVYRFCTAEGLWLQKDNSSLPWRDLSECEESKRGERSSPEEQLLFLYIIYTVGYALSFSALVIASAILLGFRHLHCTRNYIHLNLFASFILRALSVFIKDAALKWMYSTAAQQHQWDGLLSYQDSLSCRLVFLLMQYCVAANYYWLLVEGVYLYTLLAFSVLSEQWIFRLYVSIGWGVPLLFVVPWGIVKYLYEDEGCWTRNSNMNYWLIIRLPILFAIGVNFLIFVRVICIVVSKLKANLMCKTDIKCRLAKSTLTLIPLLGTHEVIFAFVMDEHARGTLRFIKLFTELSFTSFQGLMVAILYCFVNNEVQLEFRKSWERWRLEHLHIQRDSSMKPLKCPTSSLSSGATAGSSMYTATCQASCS
Protocol: The purpose of this experiment is to investigate the binding to the GLP-1 receptor of the GLP-1 derivatives, and how the binding is potentially influenced by the presence of albumin. This is done in an in vitro experiment as described below.
In order to test the binding of the derivatives to albumin, the assay was performed with a low concentration of albumin (0.001%—corresponding to the residual amount thereof in the tracer), as well as with a high concentration of albumin (2.0% added). A shift in the binding affinity, IC50, is an indication that the peptide in question binds to albumin, and thereby a prediction of a potential protracted pharmacokinetic profile of the peptide in question in animal models.
Species (in vitro): Hamster
Biological End Point: Receptor Binding
A stable transfected cell line and a high expressing clone were selected for screening. The cells were grown at 5% CO2 in DMEM, 10% FCS, 1% Pen/Strep (Penicillin/Streptomycin) and 1.0 mg/ml of the selection marker G418.
The cells (approx. 80% confluence) were washed twice in PBS and harvested with Versene (aqueous solution of the tetrasodium salt of ethylenediaminetetraacetic acid), following which they were separated by centrifugation at 1000 rpm for 5 min. The cells/cell pellet must be kept on ice to the extent possible in the subsequent steps. The cell pellet was homogenised with Ultrathurrax for 20-30 seconds in a suitable amount of Buffer 1 (depending on the amount of cells, but e.g. 10 ml). The homogenate was centrifuged at 20000 rpm for 15 minutes. The pellet was resuspended (homogenised) in 10 ml Buffer 2 and re-centrifuged. This step was repeated once more. The resulting pellet was resuspended in Buffer 2, and the protein concentration was determined. The membranes were stored at minus 80° C.
Buffer 1:20 mM Na-HEPES+10 mM EDTA, pH 7.4
Buffer 2:20 mM Na-HEPES+0.1 mM EDTA, pH 7.4
Test compounds, membranes, SPA-particles and [^125I]-GLP-1(7-36)NH2 were diluted in assay buffer. 50 ul (micro liter) HSA (“high albumin” experiment containing 2% HSA), or buffer (“low albumin” experiment containing 0.001% HSA) was added to Optiplate, and 25 ul of test compounds were added. 5-10 ug membrane protein/sample was added (50 ul) corresponding to 0.1-0.2 mg protein/ml (to be preferably optimised for each membrane preparation). SPA-particles (Wheatgerm agglutinin SPA beads, Perkin Elmer, # RPNQ0001) were added in an amount of 0.5 mg/well (50 ul). The incubation was started with [^125I]-GLP-1]-(7-36)NH2 (final concentration 0.06 nM corresponding to 49.880 DPM, 25 ul). The plates were sealed with PlateSealer and incubated for 120 minutes at 30° C. while shaking. The plates were centrifuged (1500 rpm, 10 min) and counted in Topcounter.

human GLP-1 receptor [2] = biological target: T1, human GLP-1 receptor; test: In vitro potency (CRE luciferase; whole cells); type: cell-based; design: EC50/pM (ratio 1% HSA/0% HSA): unit not given here; details: for EC50/pM (ratio 1% HSA/0% HSA): ratio of EC50 at 1% HSA to EC50 at 0% HSA; for EC50: BHK cells
Protocol: The purpose of this example is to test the activity, or potency, of the GLP-1 derivatives in vitro. The in vitro potency is the measure of human GLP-1 receptor activation in a whole cell assay.
In vitro potency was determined by measuring the response of human GLP-1 receptor in a reporter gene assay. The assay was performed in a stably transfected BHK cell line that expresses the human GLP-1 receptor and contains the DNA for the cAMP response element (CRE) coupled to a promoter and the gene for firefly luciferase (CRE luciferase). When the human GLP-1 receptor was activated it results in the production of cAMP, which in turn results in the luciferase protein being expressed. When assay incubation was completed the luciferase substrate (luciferin) was added and the enzyme converts luciferin to oxyluciferin and produces bioluminescence. The luminescence was measured and was the readout for the assay.
An increase of the in vitro potency, EC50 value, in the presence of serum albumin indicates an affinity to serum albumin and represents a method to predict a protracted pharmacokinetic profile of the test substance in animal models.
The cells were cultured at 5% CO2 in cell culture medium. They were aliquoted and stored in liquid nitrogen. Before each assay an aliquot was taken up and washed twice in PBS before being suspended at the desired concentration in the assay specific buffer.
The following chemicals were used in the assay: Pluronic F-68 (10%) (Gibco 2404), human serum albumin (HSA) (Sigma A9511), ovalbumin (Sigma A5503), DMEM w/o phenol red (Gibco 11880-028), 1 M Hepes (Gibco 15630), Glutamax 100× (Gibco 35050) and steadylite plus (PerkinElmer 6016757).
1) Cell stocks were thawed in a 37° C. water bath.
2) Cells were washed three times in PBS.
3) The cells were counted and adjusted to 5×10^3 cells/50 μl (1×10^5 cells/ml) in assay medium. A 50 μl aliquot of cells was transferred to each well in the assay plate.
4) Stocks of the test compounds and reference compounds were diluted to a concentration of 0.2 μM in 0% assay buffer for the 0% HSA CRE luciferase assay and 1% assay buffer for the HSA CRE luciferase assay. […] 5) A 50 μl aliquot of compound or blank was transferred in triplicate from the dilution plate to the assay plate. […] 7) The assay plate was removed from the incubator and allowed to stand at room temperature for 15 min. 8) A 100 μl aliquot of steadylite plus reagent was added to each well of the assay plate (reagent was light sensitive). 9) Each assay plate was covered with aluminum foil to protect it from light and shaken for 30 min at room temperature. 10) Each assay plate was read in a Packard TopCount NXT instrument. Calculations and Results
The data from the TopCount instrument were transferred to GraphPad Prism software. The software averages the values for each replicate and performs a non-linear regression.

[3] = Receptor binding affinity IC50 (low HSA), 0.001% HSA (low albumin)
[4] = In vitro potency (CRE luciferase) EC50 (1% HSA), 1% HSA

SMILES	IC50 (human GLP-1 receptor [1]; [3]) [nM]	EC50/pM (ratio 1% HSA/0% HSA) (human GLP-1 receptor [2])	IC50 (human GLP-1 receptor [1]; Receptor binding affinity IC50 (high HSA), 2.0% HSA (high albumin)) [nM]	EC50 (human GLP-1 receptor [2]; In vitro potency (CRE luciferase) EC50 (0% HSA), 0% HSA) [nM]	EC50 (human GLP-1 receptor [2]; [4]) [nM]
CC[C@H](C)[C@H](NC(=O)[C@H](Cc1ccccc1)NC(=O)[C@H](CCC(=O)O)NC(=O)[C@H](CCCCNC(=O)[C@@H](N)CCCCNC(=O)CC[C@H](NC(=O)CC[C@H](NC(=O)CCCCCCCCCCOc1ccc(C(=O)O)cc1)C(=O)O)C(=O)O)NC(=O)[C@H](C)NC(=O)[C@H](C)NC(=O)[C@H](CCC(N)=O)NC(=O)[C@H](CCC(=O)O)NC(=O)[C@H](CCC(=O)O)NC(=O)[C@H](CC(C)C)NC(=O)[C@H](Cc1ccc(O)cc1)NC(=O)[C@H](CO)NC(=O)[C@H](CO)NC(=O)[C@@H](NC(=O)[C@H](CC(=O)O)NC(=O)[C@H](CO)NC(=O)[C@@H](NC(=O)[C@H](Cc1ccccc1)NC(=O)[C@@H](NC(=O)CNC(=O)[C@H](CCC(=O)O)NC(=O)C(C)(C)NC(=O)[C@@H](N)Cc1c[nH]cn1)[C@@H](C)O)[C@@H](C)O)C(C)C)C(=O)N[C@@H](CCC(=O)O)C(=O)N[C@@H](Cc1c[nH]c2ccccc12)C(=O)N[C@@H](CC(C)C)C(=O)N[C@H](C(=O)N[C@@H](CCCNC(=N)N)C(=O)NCC(=O)N[C@@H](CCCNC(=N)N)C(=O)N[C@@H](CCCCNC(=O)[C@@H](N)CCCCNC(=O)CC[C@H](NC(=O)CC[C@H](NC(=O)CCCCCCCCCCOc1ccc(C(=O)O)cc1)C(=O)O)C(=O)O)C(=O)O)C(C)C [Example 41, N^ε26-[(2S)-2-amino-6-[[(4S)-4-carboxy-4-[[(4S)-4-carboxy-4-[11-(4-carboxyphenoxy)undecanoylamino]butanoyl]amino]butanoyl]amino]hexanoyl], N^ε37-[(2S)-2-amino-6-[[(4S)-4-carboxy-4-[[(4S)-4-carboxy-4-[11-(4-carboxyphenoxy)undecanoylamino]butanoyl]amino]butanoyl]amino]hexanoyl]-[Aib^8,Glu^22,Glu^30,Arg^34, Lys^37]-GLP-1-(7-37)-peptide] (H-H[Aib]EGTFTSDVSSYLEEQAAK([εLys-γGlu-γGlu-Undecanoyl(11-OPh(4-COOH))])EFIEWLVRGRK([εLys-γGlu-γGlu-Undecanoyl(11-OPh(4-COOH))])-OH; N-terminus and C-terminus assumed)	0.03	260	–	–	–
CC[C@H](C)[C@H](NC(=O)[C@H](Cc1ccccc1)NC(=O)[C@H](CCC(=O)O)NC(=O)[C@H](CCCCNC(=O)[C@@H](N)CCCCNC(=O)[C@@H](N)CCCCNC(=O)CC[C@H](NC(=O)CCCCCCCCCOc1ccc(C(=O)O)cc1)C(=O)O)NC(=O)[C@H](C)NC(=O)[C@H](C)NC(=O)[C@H](CCC(N)=O)NC(=O)CNC(=O)[C@H](CCC(=O)O)NC(=O)[C@H](CC(C)C)NC(=O)[C@H](Cc1ccc(O)cc1)NC(=O)[C@H](CO)NC(=O)[C@H](CO)NC(=O)[C@@H](NC(=O)[C@H](CC(=O)O)NC(=O)[C@H](CO)NC(=O)[C@@H](NC(=O)[C@H](Cc1ccccc1)NC(=O)[C@@H](NC(=O)CNC(=O)[C@H](CCC(=O)O)NC(=O)C(C)(C)NC(=O)[C@@H](N)Cc1c[nH]cn1)[C@@H](C)O)[C@@H](C)O)C(C)C)C(=O)N[C@@H](C)C(=O)N[C@@H](Cc1c[nH]cn1)C(=O)N[C@@H](CC(C)C)C(=O)N[C@H](C(=O)N[C@@H](CCC(N)=O)C(=O)NCC(=O)N[C@@H](CCCNC(=N)N)C(=O)N[C@@H](CCCCNC(=O)[C@@H](N)CCCCNC(=O)[C@@H](N)CCCCNC(=O)CC[C@H](NC(=O)CCCCCCCCCOc1ccc(C(=O)O)cc1)C(=O)O)C(=O)O)C(C)C [Example 32, N^ε26-[(2S)-2-amino-6-[[(2S)-2-amino-6-[[(4S)-4-carboxy-4-[10-(4-carboxyphenoxy)decanoylamino]butanoyl]amino]hexanoyl]amino]hexanoyl], N^ε37-[(2S)-2-amino-6-[[(2S)-2-amino-6-[[(4S)-4-carboxy-4-[10-(4-carboxyphenoxy)decanoylamino]butanoyl]amino]hexanoyl]amino]hexanoyl]-[Aib^8,His^31,Gln^34,Lys^37]-GLP-1-(7-37)-peptide]	1.57	14	27	0.011	0.162
CC[C@H](C)[C@H](NC(=O)[C@H](Cc1ccccc1)NC(=O)[C@H](CCC(=O)O)NC(=O)[C@H](CCCCNC(=O)[C@@H](N)CCCCNC(=O)[C@@H](N)CCCCNC(=O)CC[C@H](NC(=O)CCCCCCCCCCCCC(=O)O)C(=O)O)NC(=O)[C@H](C)NC(=O)[C@H](C)NC(=O)[C@H](CCC(N)=O)NC(=O)CNC(=O)[C@H](CCC(=O)O)NC(=O)[C@H](CC(C)C)NC(=O)[C@H](Cc1ccc(O)cc1)NC(=O)[C@H](CO)NC(=O)[C@H](CO)NC(=O)[C@@H](NC(=O)[C@H](CC(=O)O)NC(=O)[C@H](CO)NC(=O)[C@@H](NC(=O)[C@H](Cc1ccccc1)NC(=O)[C@@H](NC(=O)CNC(=O)[C@H](CCC(=O)O)NC(=O)C(C)(C)NC(=O)[C@@H](N)Cc1c[nH]cn1)[C@@H](C)O)[C@@H](C)O)C(C)C)C(=O)N[C@@H](C)C(=O)N[C@@H](Cc1c[nH]c2ccccc12)C(=O)N[C@@H](CC(C)C)C(=O)N[C@H](C(=O)N[C@@H](Cc1c[nH]cn1)C(=O)NCC(=O)N[C@@H](CCCNC(=N)N)C(=O)N[C@@H](CCCCNC(=O)[C@@H](N)CCCCNC(=O)[C@@H](N)CCCCNC(=O)CC[C@H](NC(=O)CCCCCCCCCCCCC(=O)O)C(=O)O)C(=O)O)C(C)C [Example 3, N^ε26-[(2S)-2-amino-6-[[(2S)-2-amino-6-[[(4S)-4-carboxy-4-(13-carboxytridecanoylamino)butanoyl]amino]hexanoyl]amino]hexanoyl], N^ε37-[(2S)-2-amino-6-[[(2S)-2-amino-6-[[(4S)-4-carboxy-4-(13-carboxytridecanoylamino)butanoyl]amino]hexanoyl]amino]hexanoyl]-[Aib^8,His^34,Lys^37]-GLP-1-(7-37)-peptide]	–	10.3	–	–	0.08
